Reference: patent publication US11629171B2, “Beta-hairpin peptidomimetics” (POLYPHOR AG, priority 2017, dated 2023)
Converted amounts (≈) assume the structure as drawn. Where a SMILES comes first, the peptide text is derived from it. Bridges are numbered along the chain shown (N, C = ends). Roman numbers before positions name the chains, in order. [ ]: non-standard residue; d: D form. Leu(3R-OH) = CC(C)[C@@H](O)[C@H](N)C(=O)O; Tle = CC(C)(C)[C@H](N)C(=O)O; dDab = NCC[C@@H](N)C(=O)O; Dab = NCC[C@H](N)C(=O)O; Dap = NC[C@H](N)C(=O)O; Mpa = O=C(O)CCS

Columns and labels:
Assay type in all cases: cell-based
[1] = tested on: human red blood cells (hRBC); experiment: Hemolysis; settings: red cells of human, 1 h, 200
How it was run: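 Washed fresh hRBC (20% v/v) were incubated with peptides at 200 μg/mL for 1 h at 37° C with shaking at 300 rpm. Supernatant OD540 was read after centrifugation and dilution, blank-corrected, and expressed as percent of the 2% Triton X-100 (100% lysis) control; PBS with 10% water gave 0%.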

[2] = tested on: Acinetobacter baumannii 872842; settings: 872842
How it was run: (§1)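 CLSI broth microdilution: inoculum ~10^6 CFU/mL in cation-adjusted Mueller-Hinton II broth, with peptide in serial two-fold dilutions plus Polysorbate 80 (0.002% final). MIC (μg/mL) is the lowest concentration without visible growth after 18-20 hours at 35° C.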

[3] = tested on: Escherichia coli ATCC 25922; settings: ATCC 25922
How it was run: as §1

[4] = tested on: Enterobacter cloacae 848840; settings: 848840
How it was run: as §1

Escherichia coli 926415 = settings: 926415
How it was run: as §1

[5] = tested on: Pseudomonas aeruginosa ATCC 27853; settings: ATCC 27853
How it was run: as §1

[6] = tested on: Klebsiella pneumoniae SSI #3010; settings: SSI #3010
How it was run: as §1

[7] = tested on: Klebsiella pneumoniae 968733; settings: 968733
How it was run: as §1

[8] = tested on: Acinetobacter baumannii DSM 30008; settings: DSM 30008
How it was run: as §1

Row | SMILES | Hemolysis at 200 μg/mL [1] [%] | MIC [2] [µg/mL] | MIC [3] [µg/mL] | MIC [4] [µg/mL] | MIC (Escherichia coli 926415) [µg/mL] | MIC [5] [µg/mL] | MIC [6] [µg/mL] | MIC [7] [µg/mL] | MIC [8] [µg/mL]
1 | CC(=O)N[C@@H](CCN)C(=O)N[C@@H](CC(C)C)C(=O)N[C@H](C(=O)N[C@@H](Cc1ccc(O)cc1)C(=O)N[C@H]1CSSC[C@@H](C(=O)N[C@H](C(=O)N[C@@H](C)C(=O)N[C@H](C(N)=O)C(C)C)C(C)(C)C)NC(=O)[C@H](Cc2c[nH]c3ccccc23)NC(=O)[C@H](CCN)NC(=O)[C@@H](CCN)NC(=O)[C@H](CCC(=O)N[C@@H](CCN)C(=O)N[C@H](C(=O)N[C@@H](CN)C(=O)N[C@H]2CCNC(=O)[C@H]([C@@H](C)O)NC(=O)[C@H](CCN)NC(=O)[C@H](CCN)NC(=O)[C@H](CC(C)C)NC(=O)[C@@H](CC(C)C)NC(=O)[C@H](CCN)NC2=O)[C@@H](C)O)NC1=O)[C@@H](C)O [Ex. 239] (I: Ac-[Dab]LTYCE[dDab][Dab]WC[Tle]AV-NH2 / II: [Dab]T[Dap][Dab][Dab][dL]L[Dab][Dab]T; disulfide I:5-I:10; amide I:6-II:N; lactam II:4-II:C) | 1 | 0.125 (≈ 0.0493 µM) | 0.125 (≈ 0.0493 µM) | 0.25 (≈ 0.0985 µM) | 0.0625 (≈ 0.0246 µM) | 0.25 (≈ 0.0985 µM) | 0.125 (≈ 0.0493 µM) | 0.25 (≈ 0.0985 µM) | 0.0625 (≈ 0.0246 µM)
2 | CC(=O)N[C@@H](CCN)C(=O)N[C@H](C(=O)N[C@H](C(=O)N[C@@H](Cc1ccc(O)cc1)C(=O)N[C@H]1CSSC[C@@H](C(=O)N[C@H](C(=O)N[C@@H](C)C(=O)N[C@H](C(N)=O)C(C)C)C(C)(C)C)NC(=O)[C@H](Cc2c[nH]c3ccccc23)NC(=O)[C@H](CCN)NC(=O)[C@@H](CCN)NC(=O)[C@H](CCC(=O)N[C@@H](CCN)C(=O)N[C@H](C(=O)N[C@@H](CN)C(=O)N[C@H]2CCNC(=O)[C@H]([C@@H](C)O)NC(=O)[C@H](CCN)NC(=O)[C@H](CCN)NC(=O)[C@H](CC(C)C)NC(=O)[C@@H](CC(C)C)NC(=O)[C@H](CCN)NC2=O)[C@@H](C)O)NC1=O)[C@@H](C)O)[C@H](O)C(C)C [Ex. 240] (I: Ac-[Dab][Leu(3R-OH)]TYCE[dDab][Dab]WC[Tle]AV-NH2 / II: [Dab]T[Dap][Dab][Dab][dL]L[Dab][Dab]T; disulfide I:5-I:10; amide I:6-II:N; lactam II:4-II:C) | 1 | 0.0625 (≈ 0.0245 µM) | 0.0625 (≈ 0.0245 µM) | 0.125 (≈ 0.049 µM) | 0.0625 (≈ 0.0245 µM) | 0.25 (≈ 0.0979 µM) | 0.125 (≈ 0.049 µM) | 0.5 (≈ 0.196 µM) | 0.03125 (≈ 0.0122 µM)
3 | CC(C)C[C@@H]1NC(=O)[C@@H](CC(C)C)NC(=O)[C@H](CCN)NC(=O)[C@@H](NC(=O)[C@H](CCN)NC(=O)[C@@H](NC(=O)[C@H](CCN)NC(=O)CC[C@@H]2NC(=O)[C@H](CCN)NC(=O)[C@H](Cc3ccc(O)cc3)NC(=O)[C@@H](NC(=O)[C@@H](NC(=O)[C@H](N)CO)C(C)C)CSSC[C@@H](C(=O)N[C@@H](CO)C(=O)N[C@H](C)C(=O)O)NC(=O)[C@H](C(C)(C)C)NC(=O)[C@H](CO)NC(=O)[C@H](Cc3c[nH]c4ccccc34)NC(=O)[C@H]([C@@H](C)O)NC(=O)[C@@H](CCN)NC2=O)[C@@H](C)O)CCNC(=O)[C@H]([C@@H](C)O)NC(=O)[C@H](CCN)NC(=O)[C@H](CCN)NC1=O [Ex. 241] (I: H-[dS]VCY[Dab]E[dDab]TWS[Tle]CS[dA]-OH / II: [Dab]T[Dab][Dab][Dab][dL]L[Dab][Dab]T; disulfide I:3-I:12; amide I:6-II:N; lactam II:4-II:C) | <1 | 0.125 (≈ 0.0489 µM) | 0.125 (≈ 0.0489 µM) | 2 (≈ 0.782 µM) | 1 (≈ 0.391 µM) | 0.25 (≈ 0.0977 µM) | 0.125 (≈ 0.0489 µM) | 1 (≈ 0.391 µM) | 0.125 (≈ 0.0489 µM)
4 | CC(C)C[C@@H]1NC(=O)[C@@H](CC(C)C)NC(=O)[C@H](CCN)NC(=O)[C@@H](NC(=O)[C@H](CCN)NC(=O)[C@@H](NC(=O)[C@H](CCN)NC(=O)CC[C@@H]2NC(=O)[C@H](CCN)NC(=O)[C@H](Cc3ccc(O)cc3)NC(=O)[C@@H](NC(=O)[C@@H](NC(=O)[C@H](N)CO)C(C)C)CSSC[C@@H](C(=O)N[C@@H](CO)C(=O)N[C@H](CO)C(=O)O)NC(=O)[C@H](C(C)(C)C)NC(=O)[C@H](CO)NC(=O)[C@H](Cc3c[nH]c4ccccc34)NC(=O)[C@H]([C@@H](C)O)NC(=O)[C@@H](CCN)NC2=O)[C@@H](C)O)CCNC(=O)[C@H]([C@@H](C)O)NC(=O)[C@H](CCN)NC(=O)[C@H](CCN)NC1=O [Ex. 242] (I: H-[dS]VCY[Dab]E[dDab]TWS[Tle]CS[dS]-OH / II: [Dab]T[Dab][Dab][Dab][dL]L[Dab][Dab]T; disulfide I:3-I:12; amide I:6-II:N; lactam II:4-II:C) | <1 | 0.125 (≈ 0.0486 µM) | 0.0625 (≈ 0.0243 µM) | 4 (≈ 1.55 µM) | 0.25 (≈ 0.0971 µM) | 0.125 (≈ 0.0486 µM) | 0.125 (≈ 0.0486 µM) | 1 (≈ 0.389 µM) | 0.125 (≈ 0.0486 µM)
5 | CC(=O)N[C@@H](CCN)C(=O)N[C@H](C(=O)N[C@H]1CSSC[C@@H](C(=O)N[C@@H](CO)C(=O)N[C@@H](CCC(=O)O)C(N)=O)NC(=O)[C@H](C(C)(C)C)NC(=O)[C@H](CO)NC(=O)[C@H](Cc2c[nH]c3ccccc23)NC(=O)[C@H](CCN)NC(=O)[C@@H](CCN)NC(=O)[C@H](CCC(=O)N[C@@H](CCN)C(=O)N[C@H](C(=O)N[C@@H](CN)C(=O)N[C@H]2CCNC(=O)[C@H]([C@@H](C)O)NC(=O)[C@H](CCN)NC(=O)[C@H](CCN)NC(=O)[C@H](CC(C)C)NC(=O)[C@@H](CC(C)C)NC(=O)[C@H](CCN)NC2=O)[C@@H](C)O)NC(=O)[C@H](CO)NC(=O)[C@H](Cc2ccc(O)cc2)NC1=O)C(C)C [Ex. 243] (I: Ac-[Dab]VCYSE[dDab][Dab]WS[Tle]CSE-NH2 / II: [Dab]T[Dap][Dab][Dab][dL]L[Dab][Dab]T; disulfide I:3-I:12; amide I:6-II:N; lactam II:4-II:C) | <1 | 0.0625 (≈ 0.0237 µM) | 0.0625 (≈ 0.0237 µM) | 0.25 (≈ 0.0946 µM) | 0.125 (≈ 0.0473 µM) | 0.25 (≈ 0.0946 µM) | 0.0625 (≈ 0.0237 µM) | 0.125 (≈ 0.0473 µM) | 0.0625 (≈ 0.0237 µM)
6 | CC(=O)N[C@H]1CSSC[C@@H](C(N)=O)NC(=O)[C@H](CO)NC(=O)[C@H](C)NC(=O)[C@H](C(C)(C)C)NC(=O)[C@H](CO)NC(=O)[C@H](Cc2c[nH]c3ccccc23)NC(=O)[C@H](CO)NC(=O)[C@@H](CCN)NC(=O)[C@H](CCC(=O)N[C@@H](CCN)C(=O)N[C@H](C(=O)N[C@@H](CN)C(=O)N[C@H]2CCNC(=O)[C@H]([C@@H](C)O)NC(=O)[C@H](CCN)NC(=O)[C@H](CCN)NC(=O)[C@H](CC(C)C)NC(=O)[C@@H](CC(C)C)NC(=O)[C@H](CCN)NC2=O)[C@@H](C)O)NC(=O)[C@H](CN)NC(=O)[C@H](Cc2ccc(O)cc2)NC(=O)[C@H]([C@@H](C)O)NC(=O)[C@H](C(C)C)NC1=O [Ex. 244] (I: Ac-CVTY[Dap]E[dDab]SWS[Tle]ASC-NH2 / II: [Dab]T[Dap][Dab][Dab][dL]L[Dab][Dab]T; disulfide I:1-I:14; amide I:6-II:N; lactam II:4-II:C) | 1 | 0.0625 (≈ 0.0243 µM) | 0.03125 (≈ 0.0122 µM) | 0.0625 (≈ 0.0243 µM) | 0.125 (≈ 0.0486 µM) | 0.25 (≈ 0.0972 µM) | 0.0625 (≈ 0.0243 µM) | 0.0625 (≈ 0.0243 µM) | 0.03125 (≈ 0.0122 µM)
7 | CC(C)C[C@@H]1NC(=O)[C@@H](CC(C)C)NC(=O)[C@H](CCN)NC(=O)[C@@H](NC(=O)[C@H](CN)NC(=O)[C@@H](NC(=O)[C@H](CCN)NC(=O)CC[C@@H]2NC(=O)[C@H](CN)NC(=O)[C@H](Cc3ccc(O)cc3)NC(=O)[C@H]([C@@H](C)O)NC(=O)[C@H](C(C)C)NC(=O)CCSSC[C@@H](C(N)=O)NC(=O)[C@H](CO)NC(=O)[C@H](C)NC(=O)[C@H](C(C)(C)C)NC(=O)[C@H](CO)NC(=O)[C@H](Cc3c[nH]c4ccccc34)NC(=O)[C@H](CO)NC(=O)[C@@H](CCN)NC2=O)[C@@H](C)O)CCNC(=O)[C@H]([C@@H](C)O)NC(=O)[C@H](CCN)NC(=O)[C@H](CCN)NC1=O [Ex. 245] (I: [Mpa]VTY[Dap]E[dDab]SWS[Tle]ASC-NH2 / II: [Dab]T[Dap][Dab][Dab][dL]L[Dab][Dab]T; disulfide I:1-I:14; amide I:6-II:N; lactam II:4-II:C) | 1 | 0.0625 (≈ 0.0249 µM) | 0.0625 (≈ 0.0249 µM) | 0.125 (≈ 0.0497 µM) | 0.125 (≈ 0.0497 µM) | 0.25 (≈ 0.0994 µM) | 0.125 (≈ 0.0497 µM) | 0.25 (≈ 0.0994 µM) | 0.03125 (≈ 0.0124 µM)
